For this test, the target named is T1, androgen receptor (AR) (Homo sapiens, UniProt P10275).
T1 construct: endogenous in cells; host or cells: T47D
T1 sequence (P10275 1-920): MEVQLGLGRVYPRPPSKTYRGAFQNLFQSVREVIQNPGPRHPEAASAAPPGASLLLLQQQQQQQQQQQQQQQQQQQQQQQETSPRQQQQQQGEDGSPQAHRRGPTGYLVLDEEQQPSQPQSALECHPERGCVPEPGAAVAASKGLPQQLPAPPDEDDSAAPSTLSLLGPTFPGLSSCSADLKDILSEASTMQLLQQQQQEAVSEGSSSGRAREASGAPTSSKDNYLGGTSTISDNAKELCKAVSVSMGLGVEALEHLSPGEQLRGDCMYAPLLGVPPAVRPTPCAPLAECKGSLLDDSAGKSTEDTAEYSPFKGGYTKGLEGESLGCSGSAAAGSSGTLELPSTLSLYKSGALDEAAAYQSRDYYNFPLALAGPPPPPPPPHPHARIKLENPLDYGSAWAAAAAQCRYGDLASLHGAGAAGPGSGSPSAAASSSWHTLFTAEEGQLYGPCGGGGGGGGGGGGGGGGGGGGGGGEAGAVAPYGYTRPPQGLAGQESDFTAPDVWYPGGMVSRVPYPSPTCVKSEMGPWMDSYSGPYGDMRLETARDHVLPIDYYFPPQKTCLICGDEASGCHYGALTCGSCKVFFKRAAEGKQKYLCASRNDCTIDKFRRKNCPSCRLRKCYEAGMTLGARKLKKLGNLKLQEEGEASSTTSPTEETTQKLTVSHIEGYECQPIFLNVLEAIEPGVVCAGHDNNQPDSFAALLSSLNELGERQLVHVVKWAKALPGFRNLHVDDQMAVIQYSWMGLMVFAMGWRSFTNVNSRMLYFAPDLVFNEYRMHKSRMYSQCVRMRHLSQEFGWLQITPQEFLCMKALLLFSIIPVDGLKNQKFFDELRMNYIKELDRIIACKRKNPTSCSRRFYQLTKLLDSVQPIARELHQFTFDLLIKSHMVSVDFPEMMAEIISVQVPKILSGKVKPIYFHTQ
As to the kind of experiment: Western blot of T47D cell lysates, AR. To be noted: 5 or 10 micromolar, presence or absence of estradiol (E2). The format is cell-based. As for the experimental part:
Human prostate cancer LNCaP cells and T47D cells were plated at a density of 7×10^5 cells per 60 millimeter tissue culture dish in […] (RPMI) medium containing 10% FBS. The medium was changed to RPMI or DME medium containing 10% charcoal-stripped serum 24 hours later to deplete cellular androgens or estrogens. After another 24 hours, treatment with the test compounds began. The test dose of JC15 was 1 or 2 micromolar and the test does of JC9 was 1, 5 and 10 micromolar. LNCap cells also received dihydrotestosterone (DHT) (3 nanomolar). Control cells received a corresponding amount of the vehicle, dimethylsulfoxide (DMSO) (<0.04%) for an equivalent exposure time. Cells were incubated with JC15 for 24 or 48 hours, and were lysed in 250 microliters of 1×SDS/PAGE loading buffer. Approximately 40 micrograms of total cellular protein was loaded in each lane of a pre-cast gel (NuPAGE, Invitrogen). Protein separation and transfer were performed following the manufacturer's instructions.

On to `COc1ccc(C=CC(=O)C=C(O)C=Cc2ccc(OC)c(OC)c2)cc1OC` [JC9, 5-hydroxy-1,7-bis(3,4-dimethoxyphenyl)-1,4,6-heptatrien-3-one], for which the “cellular concentration of AR” value is “decreased”.
